Biological target: T1, human P2X4 (Homo sapiens, UniProt Q99571)
T1 sequence (Q99571 1-388): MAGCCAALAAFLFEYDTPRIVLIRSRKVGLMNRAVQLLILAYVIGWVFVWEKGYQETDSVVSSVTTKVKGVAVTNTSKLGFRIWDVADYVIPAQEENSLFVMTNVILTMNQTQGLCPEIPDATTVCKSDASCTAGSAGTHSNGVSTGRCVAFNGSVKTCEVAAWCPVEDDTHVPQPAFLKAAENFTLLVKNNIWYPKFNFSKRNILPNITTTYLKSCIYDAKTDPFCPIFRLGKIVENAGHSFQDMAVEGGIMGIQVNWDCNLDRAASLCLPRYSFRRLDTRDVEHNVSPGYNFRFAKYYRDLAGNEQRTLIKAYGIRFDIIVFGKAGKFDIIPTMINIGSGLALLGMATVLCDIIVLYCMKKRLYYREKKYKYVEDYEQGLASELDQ
Test: Human P2X4 HEK Cell FLIPR Assay
Format: cell-based
Conditions: agonist Bz-ATP at EC80; for Emax: HEK293, HEK293 cells, percentage of maximal inhibition, read-out: Human P2X4 HEK Cells (FLIPR Assay) avg Efficacy [%]; for IC50: HEK293 cells, individual values listed where some fall outside detection range
In short: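 Calcium flux read by FLIPR for 120 sec after Bz-ATP challenge at EC80 (established each assay day), following 30 min room-temperature compound preincubation in dye-loaded stable human P2X4 HEK293 cells. Peak RFU over basal normalized to agonist control; IC50, maximal inhibition and Hill coefficient from triplicate means.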

| SMILES | Emax | IC50 |
| --- | --- | --- |
| Cc1ccccc1CC(=O)Nc1ccc(-c2cnn(C(F)F)c2)c(S(N)(=O)=O)c1 [Example 223, N-{4-[1-(Difluoromethyl)-1H-pyrazol-4-yl]-3-sulfamoylphenyl}-2-(2-methylphenyl)-acetamide] | 87% | 26 nM |
| NS(=O)(=O)c1cc(NC(=O)Cc2ccccc2C(F)(F)F)ccc1-c1cnn(C(F)F)c1 [Example 224, N-{4-[1-(Difluoromethyl)-1H-pyrazol-4-yl]-3-sulfamoylphenyl}-2-[2-(trifluoromethyl)-phenyl]acetamide] | 94% | 28 nM |
| NS(=O)(=O)c1cc(NC(=O)Cc2ccccc2C(F)F)ccc1-c1cnn(C(F)F)c1 [Example 225, 2-[2-(Difluoromethyl)phenyl]-N-{4-[1-(difluoromethyl)-1H-pyrazol-4-yl]-3-sulfamoyl-phenyl}acetamide] | 91% | 70 nM |
| COc1ccccc1CC(=O)Nc1ccc(-c2cnn(C(F)F)c2)c(S(N)(=O)=O)c1 [Example 226, N-{4-[1-(Difluoromethyl)-1H-pyrazol-4-yl]-3-sulfamoylphenyl}-2-(2-methoxyphenyl)-acetamide] | 104% | 111 nM |
| NS(=O)(=O)c1cc(NC(=O)Cc2ccc(F)cc2)ccc1-c1cnn(C(F)F)c1 [Example 227, N-{4-[1-(Difluoromethyl)-1H-pyrazol-4-yl]-3-sulfamoylphenyl}-2-(4-fluorophenyl)-acetamide] | 95% | 404 nM |
| NS(=O)(=O)c1cc(NC(=O)Cc2cc(F)ccc2Cl)ccc1-c1cnn(C(F)F)c1 [Example 228, 2-(2-Chloro-5-fluorophenyl)-N-{4-[1-(difluoromethyl)-1H-pyrazol-4-yl]-3-sulfamoyl-phenyl}acetamide] | 92% | 37 nM |
| NS(=O)(=O)c1cc(NC(=O)Cc2cccc(Cl)c2Cl)ccc1-c1cnn(C(F)F)c1 [Example 229, 2-(2,3-Dichlorophenyl)-N-{4-[1-(difluoromethyl)-1H-pyrazol-4-yl]-3-sulfamoylphenyl}-acetamide] | 94% | 16 nM |
| NS(=O)(=O)c1cc(NC(=O)Cc2ccncc2Cl)ccc1-c1cnn(C(F)F)c1 [Example 230, 2-(3-Chloropyridin-4-yl)-N-{4-[1-(difluoromethyl)-1H-pyrazol-4-yl]-3-sulfamoyl-phenyl}acetamide] | 90% | 351 nM |
| NS(=O)(=O)c1cc(NC(=O)Cc2ccccc2Cl)ccc1-n1cnc(C2CCC2)n1 [Example 231, 2-(2-Chlorophenyl)-N-[4-(3-cyclobutyl-1H-1,2,4-triazol-1-yl)-3-sulfamoylphenyl]-acetamide] | 81% | 51 nM |
| CC(=O)c1cnn(-c2ccc(NC(=O)Cc3ccccc3Cl)cc2S(N)(=O)=O)c1 [Example 232, N-[4-(4-Acetyl-1H-pyrazol-1-yl)-3-sulfamoylphenyl]-2-(2-chlorophenyl)acetamide] | 89% | 81 nM |
| CC(C)c1ncn(-c2ccc(NC(=O)Cc3ccccc3Cl)cc2S(N)(=O)=O)n1 [Example 233, 2-(2-Chlorophenyl)-N-[4-(3-isopropyl-1H-1,2,4-triazol-1-yl)-3-sulfamoylphenyl]-acetamide] | 80% | 93 nM |
| NS(=O)(=O)c1cc(NC(=O)Cc2ccccc2C(F)(F)F)ccc1-n1cc(Cl)cn1 [Example 234, N-[4-(4-Chloro-1H-pyrazol-1-yl)-3-sulfamoylphenyl]-2-[2-(trifluoromethyl)-phenyl]acetamide] | 96% | 93 nM |
| CCOC(=O)c1cnn(-c2ccc(NC(=O)Cc3ccccc3Cl)cc2S(N)(=O)=O)c1 [Example 235, Ethyl 1-(4-{[(2-chlorophenyl)acetyl]amino}-2-sulfamoylphenyl)-1H-pyrazole-4-carboxylate] | 35% | > 25000 nM |
| CCOC(=O)c1cnn(-c2ccc(NC(=O)Cc3ccccc3F)cc2S(N)(=O)=O)c1 [Example 236, Ethyl 1-(4-{[(2-fluorophenyl)acetyl]amino}-2-sulfamoylphenyl)-1H-pyrazole-4-carboxylate] | 54% | 36 nM |
| CC(C)(O)c1cnn(-c2ccc(NC(=O)Cc3ccccc3F)cc2S(N)(=O)=O)c1 [Example 237, 2-(2-Fluorophenyl)-N-{4-[4-(2-hydroxypropan-2-yl)-1H-pyrazol-1-yl]-3-sulfamoyl-phenyl}acetamide] | 72% | 1890 nM |
| CC(C)(O)c1cnn(-c2ccc(NC(=O)Cc3ccccc3Cl)cc2S(N)(=O)=O)c1 [Example 238, 2-(2-Chlorophenyl)-N-{4-[4-(2-hydroxypropan-2-yl)-1H-pyrazol-1-yl]-3-sulfamoyl-phenyl}acetamide] | 76% | 682 nM |

Other lines, results leading:

| Emax | IC50 | SMILES |
| --- | --- | --- |
| 81% | 2590 nM | NS(=O)(=O)c1cc(NC(=O)Cc2cccnc2Cl)ccc1-n1cnc(C(F)(F)F)n1 [Example 239, 2-(2-Chloropyridin-3-yl)-N-{3-sulfamoyl-4-[3-(trifluoromethyl)-1H-1,2,4-triazol-1-yl]phenyl}acetamide] |
| 93% | 3440 nM | CN(C(=O)Cc1ccccc1Cl)c1ccc(-n2cc(C(F)(F)F)cn2)c(S(N)(=O)=O)c1 [Example 240, 2-(2-Chlorophenyl)-N-methyl-N-{3-sulfamoyl-4-[4-(trifluoromethyl)-1H-pyrazol-1-yl]phenyl}acetamide] |
| 92% | 48 nM | NS(=O)(=O)c1cc(NC(=O)Cc2ccccc2Cl)ccc1-n1ncc(C(F)(F)F)n1 [Example 241, 2-(2-Chlorophenyl)-N-{3-sulfamoyl-4-[4-(trifluoromethyl)-2H-1,2,3-triazol-2-yl]-phenyl}acetamide] |
| 86% | 37 nM | NS(=O)(=O)c1cc(NC(=O)Cc2ccccc2Cl)ccc1-n1cc(C(F)(F)F)nn1 [Example 242, 2-(2-Chlorophenyl)-N-{3-sulfamoyl-4-[4-(trifluoromethyl)-1H-1,2,3-triazol-1-yl]-phenyl}acetamide] |
| 87% | 496 nM | N#Cc1ccc(Cl)c(CC(=O)Nc2ccc(-n3cc(C(F)(F)F)cn3)c(S(N)(=O)=O)c2)c1 [Example 243, 2-(2-Chloro-5-cyanophenyl)-N-{3-sulfamoyl-4-[4-(trifluoromethyl)-1H-pyrazol-1-yl]-phenyl}acetamide] |
| 73% | 141 nM | N#Cc1cc(NC(=O)Cc2ccccc2Cl)cc(S(N)(=O)=O)c1-n1cc(C(F)(F)F)cn1 [Example 244, 2-(2-Chlorophenyl)-N-{3-cyano-5-sulfamoyl-4-[4-(trifluoromethyl)-1H-pyrazol-1-yl]-phenyl}acetamide] |
| 88% | 474 nM | NS(=O)(=O)c1cc(NC(=O)Cc2cc(Br)ccc2Cl)ccc1-n1cc(C(F)(F)F)cn1 [Example 245, 2-(5-Bromo-2-chlorophenyl)-N-{3-sulfamoyl-4-[4-(trifluoromethyl)-1H-pyrazol-1-yl]phenyl}acetamide] |
| 100% | 252 nM | NS(=O)(=O)c1cc(NC(=O)Cc2ccccc2F)ccc1-n1cnc(Cl)n1 [Example 246, N-[4-(3-Chloro-1H-1,2,4-triazol-1-yl)-3-sulfamoylphenyl]-2-(2-fluorophenyl)acetamide] |
| 64% | 69 nM | N#Cc1cc(NC(=O)Cc2ccccc2Cl)cc(S(N)(=O)=O)c1-n1cc(F)cn1 [Example 247, 2-(2-Chlorophenyl)-N-[3-cyano-4-(4-fluoro-1H-pyrazol-1-yl)-5-sulfamoyl-phenyl]acetamide] |
| 74% | 84 nM | Cc1cnn(-c2ccc(NC(=O)Cc3ccccc3Cl)cc2S(N)(=O)=O)c1 [Example 248, 2-(2-Chlorophenyl)-N-[4-(4-methyl-1H-pyrazol-1-yl)-3-sulfamoylphenyl]acetamide] |
| 72% | 8460 nM | COc1ncn(-c2ccc(NC(=O)Cc3ccccc3Cl)cc2S(N)(=O)=O)n1 [Example 249, 2-(2-Chlorophenyl)-N-[4-(3-methoxy-1H-1,2,4-triazol-1-yl)-3-sulfamoylphenyl]-acetamide] |
| 82% | 193 nM | NS(=O)(=O)c1cc(NC(=O)Cc2ccccc2Cl)ccc1-n1cnc(C2CC2)c1 [Example 250, 2-(2-Chlorophenyl)-N-[4-(4-cyclopropyl-1H-imidazol-1-yl)-3-sulfamoylphenyl]-acetamide] |
| 96% | 21 nM | Cc1cn(-c2ccc(NC(=O)Cc3ccccc3Cl)cc2S(N)(=O)=O)cn1 [Example 251, 2-(2-Chlorophenyl)-N-[4-(4-methyl-1H-imidazol-1-yl)-3-sulfamoylphenyl]acetamide] |
| 88% | 808 nM | NS(=O)(=O)c1cc(NC(=O)Cc2ccccc2Cl)ccc1-n1ccc(C2CC2)n1 [Example 252, 2-(2-Chlorophenyl)-N-[4-(3-cyclopropyl-1H-pyrazol-1-yl)-3-sulfamoylphenyl]-acetamide] |
| 85% | 257 nM | NS(=O)(=O)c1cc(NC(=O)Cc2ccccc2Cl)ccc1-n1cc2cccnc2n1 [Example 253, 2-(2-Chlorophenyl)-N-[4-(2H-pyrazolo[3,4-b]pyridin-2-yl)-3-sulfamoylphenyl]-acetamide] |
| 102% | 41 nM | NS(=O)(=O)c1cc(NC(=O)Cc2ccccc2Cl)ccc1-n1cc2ccncc2n1 [Example 254, 2-(2-Chlorophenyl)-N-[4-(2H-pyrazolo[3,4-c]pyridin-2-yl)-3-sulfamoylphenyl]-acetamide] |
